According to article PMC6315989, “Red-Shifted FRET Biosensors for High-Throughput Fluorescence Lifetime Screening” (Biosensors, 2018):
Several values for one entry are separate records, joined by “and”; a condition that tells them apart may be missing. Equal values may be shown once.

Columns and labels:
[1] = target: T1, human cardiac calcium pump (SERCA2a) (Homo sapiens, UniProt P16615); assay: 2CS (O/M, OFP/MFP) red-shifted FRET fluorescence lifetime biosensor in living HEK293 cells; assay type: cell-based
T1 sequence (P16615 1-997 isoform P16615-2): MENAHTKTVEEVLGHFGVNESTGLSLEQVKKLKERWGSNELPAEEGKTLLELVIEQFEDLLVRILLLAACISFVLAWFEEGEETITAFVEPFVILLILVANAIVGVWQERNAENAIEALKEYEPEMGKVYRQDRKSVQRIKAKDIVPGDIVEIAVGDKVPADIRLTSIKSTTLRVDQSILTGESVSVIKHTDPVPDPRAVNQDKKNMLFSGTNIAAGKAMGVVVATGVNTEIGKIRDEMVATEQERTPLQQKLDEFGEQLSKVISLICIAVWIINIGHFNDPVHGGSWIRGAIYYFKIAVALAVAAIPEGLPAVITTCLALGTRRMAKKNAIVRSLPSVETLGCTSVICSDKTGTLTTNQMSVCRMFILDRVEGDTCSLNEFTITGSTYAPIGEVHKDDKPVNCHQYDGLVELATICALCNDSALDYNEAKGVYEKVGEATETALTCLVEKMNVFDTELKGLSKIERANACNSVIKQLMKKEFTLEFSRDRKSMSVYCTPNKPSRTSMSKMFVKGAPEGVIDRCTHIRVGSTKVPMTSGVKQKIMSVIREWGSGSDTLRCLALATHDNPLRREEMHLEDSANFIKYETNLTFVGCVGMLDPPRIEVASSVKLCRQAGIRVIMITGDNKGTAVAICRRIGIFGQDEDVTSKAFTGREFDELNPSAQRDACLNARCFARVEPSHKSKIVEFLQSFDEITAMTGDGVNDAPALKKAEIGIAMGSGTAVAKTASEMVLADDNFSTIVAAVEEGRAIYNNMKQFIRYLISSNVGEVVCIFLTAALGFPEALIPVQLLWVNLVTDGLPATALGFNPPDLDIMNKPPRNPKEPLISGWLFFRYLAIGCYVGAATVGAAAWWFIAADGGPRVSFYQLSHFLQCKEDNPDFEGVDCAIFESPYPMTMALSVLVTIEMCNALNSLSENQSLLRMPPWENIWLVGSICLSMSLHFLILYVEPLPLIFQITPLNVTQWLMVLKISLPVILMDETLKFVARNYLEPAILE
Method: (§1) HEK293 (originally derived from human embryonic kidney) cells were maintained in phenol red-free DMEM from Gibco (Waltham, MA, USA) supplemented with 2 mM GlutaMAX (Gibco), 10% fetal bovine serum (FBS), from Atlanta Biologicals (Lawrenceville, GA, USA), and 1 IU/mL penicillin/streptomycin (Gibco) and grown at 37 °C with 5% CO2. HEK293 cell lines were used to generate stable clones overexpressing the FRET-based biosensors (containing both donor and acceptor) and corresponding donor-only and acceptor-only control cell lines. Three days prior to screening, the stable cell lines were expanded into T225 flasks from Corning Inc. (Corning, NY, USA). On each day of screening and FRET hit retesting, approximately 30 million cells were harvested by treatment of Tryple from Invitrogen (Carlsbad, CA, USA), washed three times in phosphate buffer solution (PBS) with no magnesium or calcium from Thermo Scientific (Waltham, MA, USA) by centrifugation at 300 g, filtered using 70 µm cell strainers (Corning), and diluted to 10^6 cells/mL using an automated countess cell counter (Invitrogen). On each day of screening, cell viability was assessed using the trypan blue assay and found to be above 95% viable. After resuspension and dilution in PBS, the cells were continuously and gently stirred using a magnetic stir bar at room temperature, keeping the cells in suspension and evenly distributed to avoid clumping. Subcellular localization of each biosensor was evaluated using an Olympus FluoView FV1000 IX2 (Tokyo, Japan) Inverted Confocal microscope with FLIM detector. GFP and RFP signals were assessed using 473 and 561 nm laser excitation, respectively. Cell nuclei were identified by staining with DAPI, using 405 nm laser excitation.
(§2) Cells and compound mixtures were dispensed into 1536-well flat, black-bottom polypropylene plates from Greiner (Kremsmünste, Austria). Compounds were dispensed using either an automated Echo acoustic liquid dispenser from Labcyte (Sunnyvale, CA, USA) or a Mosquito liquid dispenser from TTP Labtech (Melbourn, UK). Cells were dispensed at room temperature using a Multidrop Combi liquid dispenser from Thermo (Pittsburg, PA, USA), at a density of 10^6 cells/mL, either 30 or 120 min before screening. For screening, cells were dispensed into assay plates containing the 1280-compund LOPAC (Library of Pharmacologically Active Compounds, from Invitrogen), dissolved in DMSO. The final DMSO concentration was <1%, and control wells were prepared containing cells and matching [DMSO]. The same methods were applied for subsequent FRET testing of the reproducible hits identified in the pilot screen. Reproducible FRET hits for retesting were purchased from Tocris (Minneapolis, MN, USA) or Invitrogen (Carlsbad, CA, USA), depending on their availability.
(§3) An in-depth description of the fluorescence instrumentation has previously been described in detail and can be found in our previous publication. The current instrument has been updated to a high-density microplate format (1536 wells, 5 μL/well), acquiring data from a full plate in less than three minutes with lifetime measurement precision (standard deviation/mean) of 1% or better. Fluorescence decay waveforms (with upper-end specifications of […] resolution, 640 data points over 128 ns range) for FLT determination were detected directly as previously described, except that two different light sources were used for GFP and OFP. In both cases, fluorescence was excited with a pulsed microchip laser producing nanosecond-wide pulses. As previously described for GFP, a 473 nm laser (Bright Solutions, Via degli Artigiani, Italy) was used, delivering pulses of ~1 μJ energy at a 5 kHz repetition rate. For OFP, a 532 nm laser (Teem Photonics SNG-20F-100, Meylan, France) was used, delivering pulses of ~0.3 μJ energy at a 20 kHz repetition rate. […]

[2] = target: T1, human cardiac calcium pump (SERCA2a); assay: 2CS (G/R, GFP/RFP) FRET fluorescence lifetime biosensor in living HEK293 cells; assay type: cell-based; parameters: expressed in transfected cells
Method: as §1, §2, §3

[3] = target: T2, SERCA2a (Sus scrofa, UniProt P11607); assay: Enzyme-coupled NADH-linked SERCA ATPase activity assay, cardiac SR vesicles; assay type: biochemical, pig
T2 construct: rabbit skeletal muscle (SERCA1a) and pig cardiac muscle (SERCA2a); from tissue; host or cells: pig cardiac muscle sarcoplasmic reticulum vesicles
T2 sequence (P11607 1-997 isoform P11607-2): as the sequence (P16615 1-997 isoform P16615-2) above, with R371K, N403K, S538P, L570M, H576N, D667E, A713S, S865T, I889V, V963L counted along it
Method: (§4) Functional assays were performed using sarcoplasmic reticulum vesicles prepared from rabbit skeletal muscle (SERCA1a) and pig cardiac muscle (SERCA2a). An enzyme-coupled, NADH-linked ATPase assay was used to measure SERCA ATPase activity in 96-well microplates. Each well contained 50 mM MOPS (pH 7.0), 100 mM KCl, 5 mM MgCl2, 1 mM EGTA, 0.2 mM NADH, 1 mM phosphoenol pyruvate, 10 IU/mL of pyruvate kinase, 10 IU/mL of lactate dehydrogenase, 1 µM of the calcium ionophore A23187 from Sigma (St. Louis, MO, USA), and CaCl2 added to set free [Ca^2+] to 10 μM [23]; 4 μg/mL of SR vesicle, calcium, compound, and assay mix were incubated for 20 min. The assay was started upon the addition of ATP, at a final concentration of 5 mM (total volume to 200 μL), and the rate of decrease in NADH absorbance at 340 nm was determined using a SpectraMax Plus microplate spectrophotometer (Molecular Devices, Sunnyvale, CA, USA).

[4] = system: donor-only controls and donor-acceptor "null" linker constructs; assay: Control biosensors (donor-only 1CS and donor-acceptor null linker) lifetime CRC in HEK293 cells; assay type: cell-based, human; conditions: G/R and O/M control cell lines
Method: HEK293 (originally derived from human embryonic kidney) cells were maintained in phenol red-free DMEM from Gibco (Waltham, MA, USA) supplemented with 2 mM GlutaMAX (Gibco), 10% fetal bovine serum (FBS), from Atlanta Biologicals (Lawrenceville, GA, USA), and 1 IU/mL penicillin/streptomycin (Gibco) and grown at 37 °C with 5% CO2. HEK293 cell lines were used to generate stable clones overexpressing the FRET-based biosensors (containing both donor and acceptor) and corresponding donor-only and acceptor-only control cell lines. Three days prior to screening, the stable cell lines were expanded into T225 flasks from Corning Inc. (Corning, NY, USA). […] On each day of screening, cell viability was assessed using the trypan blue assay and found to be above 95% viable. […] Subcellular localization of each biosensor was evaluated using an Olympus FluoView FV1000 IX2 (Tokyo, Japan) Inverted Confocal microscope with FLIM detector. GFP and RFP signals were assessed using 473 and 561 nm laser excitation, respectively. […]
An in-depth description of the fluorescence instrumentation has previously been described in detail and can be found in our previous publication. […] Fluorescence decay waveforms (with upper-end specifications of […] resolution, 640 data points over 128 ns range) for FLT determination were detected directly as previously described, except that two different light sources were used for GFP and OFP. In both cases, fluorescence was excited with a pulsed microchip laser producing nanosecond-wide pulses. […] These filters were selected to exclude acceptor fluorescence, as only the lifetime of the donor fluorescent protein is required to calculate FRET (Equation (1)). […] The observed time-resolved fluorescence waveform was analyzed as described previously, assuming a single-exponential decay, to determine the fluorescence lifetimes (FLT) for control samples containing donor only (τD) and FRET biosensor samples containing donor plus acceptor (τDA). FRET efficiency was calculated from (1) FRET=1−(τDA/τD) […]

[5] = target: T3, SERCA1a (Oryctolagus cuniculus, UniProt P04191); assay: Enzyme-coupled NADH-linked SERCA ATPase activity assay, skeletal SR vesicles; assay type: biochemical, rabbit
T3 construct: sarcoplasmic reticulum vesicles prepared from rabbit skeletal muscle (SERCA1a); from tissue; host or cells: rabbit skeletal muscle sarcoplasmic reticulum vesicles
T3 sequence (P04191 1-994 isoform P04191-2): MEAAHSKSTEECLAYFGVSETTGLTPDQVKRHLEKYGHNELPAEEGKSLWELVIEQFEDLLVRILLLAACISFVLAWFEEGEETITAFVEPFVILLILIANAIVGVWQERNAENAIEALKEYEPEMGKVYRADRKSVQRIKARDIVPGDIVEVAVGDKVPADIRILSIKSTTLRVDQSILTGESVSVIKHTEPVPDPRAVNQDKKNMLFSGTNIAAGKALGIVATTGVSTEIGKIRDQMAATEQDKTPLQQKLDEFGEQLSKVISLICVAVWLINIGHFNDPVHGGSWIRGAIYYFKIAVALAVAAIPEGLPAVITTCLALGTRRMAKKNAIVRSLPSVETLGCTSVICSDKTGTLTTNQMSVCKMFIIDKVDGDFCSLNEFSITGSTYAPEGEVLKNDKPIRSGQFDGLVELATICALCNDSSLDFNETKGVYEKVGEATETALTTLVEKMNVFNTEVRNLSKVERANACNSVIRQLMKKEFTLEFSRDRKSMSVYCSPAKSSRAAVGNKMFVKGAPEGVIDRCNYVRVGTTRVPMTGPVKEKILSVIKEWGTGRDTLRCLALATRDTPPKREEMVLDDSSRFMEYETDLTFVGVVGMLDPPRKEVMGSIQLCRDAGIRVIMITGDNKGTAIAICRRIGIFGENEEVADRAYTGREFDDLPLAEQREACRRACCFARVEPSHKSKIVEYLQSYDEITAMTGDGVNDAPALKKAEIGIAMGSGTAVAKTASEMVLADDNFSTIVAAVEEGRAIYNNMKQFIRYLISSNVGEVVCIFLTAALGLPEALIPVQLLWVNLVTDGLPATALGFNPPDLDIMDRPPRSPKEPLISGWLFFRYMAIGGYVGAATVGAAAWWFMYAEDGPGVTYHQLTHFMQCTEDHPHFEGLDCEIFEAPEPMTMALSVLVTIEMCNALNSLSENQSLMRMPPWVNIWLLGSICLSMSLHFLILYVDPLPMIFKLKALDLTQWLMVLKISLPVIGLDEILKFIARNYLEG
Method: as §4

[6] = known SERCA inhibitors, concentration-response curve, live HEK293 cells, 532 nm excitation, read-out: EC50 of lifetime change, h2CS2a (O/M)
[7] = known SERCA inhibitors, concentration-response curve, live HEK293 cells, 473 nm excitation, read-out: EC50 of lifetime change, h2CS2a (G/R)
[8] = LOPAC hits, 16-point CRC, Hill fit, apparent EC50 for FPL 64176 (no saturation), read-out: EC50 of lifetime change, 2CS (OFP/MFP)
[9] = LOPAC hits, 16-point CRC, Hill fit, apparent EC50 for FPL 64176 (no saturation), read-out: EC50 of lifetime change, 2CS (GFP/RFP)
[10] = mean ± SD, concentration-response curve

Row | effect on Ca-dependent ATPase activity, SERCA2a ([3]; CRC, free Ca2+ 10 μM) | EC50 [1, 8] | EC50 [2, 9] | effect on Ca-dependent ATPase activity, SERCA1a ([5]; CRC, free Ca2+ 10 μM) | Compound | EC50 [1, 6] | EC50 [2, 7] | effect on FRET/lifetime of donor-only and null-linker controls [4] | also measured
1 |  |  |  |  | CC(=O)C1=C(O)[C@@H]2[C@H]3c4c[nH]c5cccc(c45)C[C@H]3C(C)(C)N2C1=O [CPA, cyclopiazonic acid] | 0.626 µM | 0.715 µM |  | 
2 | biphasic ATPase activation | 21.1 µM and 21 µM | 26.5 µM and 26 µM | biphasic ATPase activation | COC(=O)c1c(C)[nH]c(C)c1C(=O)c1ccccc1Cc1ccccc1 [FPL 64176] |  |  | no significant effect on FRET | ATPase activation of SERCA2a in comparison to SERCA1a (EC50 and % change) ([3]; cardiac versus skeletal isoform): significantly more effective; FRET (lifetime) response in CRC, 2CS (O/M) ([1]; 16-point CRC): did not saturate at the highest concentrations; FRET (lifetime) response in CRC, 2CS (G/R) ([2]; 16-point CRC): did not saturate at the highest concentrations
3 |  |  |  |  | Oc1ccc2ccccc2c1SSc1c(O)ccc2ccccc12 [IPA3] |  |  | significant concentration-dependent changes in fluorescence lifetime | IC50 ([3]; CRC, free Ca2+ 10 μM, read-out: apparent EC50 (IC50) of ATPase inhibition, SERCA2a): 8 µM; concentration at which FRET abruptly and significantly decreased, 2CS (O/M) ([1]; non-sigmoidal CRC): approximately 10 μM; concentration at which FRET abruptly and significantly decreased, 2CS (G/R) ([2]; non-sigmoidal CRC): approximately 10 μM; IC50 ([5]; CRC, free Ca2+ 10 μM, read-out: apparent EC50 (IC50) of ATPase inhibition, SERCA1a): 9.5 µM
4 | biphasic | 7.2 µM | 13.8 µM | biphasic | c1ccc(C(NCc2cccnc2)(c2ccccc2)c2ccccc2)cc1 [UCL 2077, 3-(triphenylmethylaminomethyl)pyridine] |  |  | no significant effect on FRET | compound concentration at which ATPase activity peaked, SERCA2a ([3]; biphasic CRC): around 3 micromolar; compound concentration at which ATPase activity peaked, SERCA1a ([5]; biphasic CRC): around 3 micromolar
5 |  |  |  |  | C/C=C(/C)C(=O)O[C@H]1C(C)=C2[C@H]([C@@H]1OC(=O)CCCCCCC)[C@@](C)(OC(C)=O)C[C@H](OC(=O)CCC)[C@@]1(O)[C@H]2OC(=O)[C@@]1(C)O [thapsigargin] | 0.0022 ± 0.0013 µM | 0.0044 ± 0.0012 µM |  | lifetime change Δτ at saturating compound, h2CS2a (O/M) [1, 10]: 258 ± 12 ps; lifetime change Δτ at saturating compound, h2CS2a (G/R) [2, 10]: 136 ± 10 ps
